The nature of series [1]: Proteolytic stability assay in 1% rat small intestinal fluid (rSIF). The note with it: for percentage of peptide not cleaved using rSIF: 0 min, 1% rSIF, 37° C.; for remaining at 0.05 h, 0.4 mg/mL / remaining at 0.25 h, 0.4 mg/mL / remaining at 1 h, 0.4 mg/mL: rat, real gastrointestinal fluid or homogenate, pH 8. How it is done: The stability of peptides are compared in 1% rat small intestinal fluid (rSIF). The amount of intact peptide is measured for a sample peptide at 0, 3, 15, and 30 minutes to assess proteolytic stability. The amount of intact peptide for a sample peptide is measured in 90% pig small intestinal fluid (pSIF) at 0, 30, 45, and 60 minutes to assess the proteolytic stability.
Peptides are prepared at 0.4 mg/mL in 50 mM Tris pH8.0. […] The mixture is incubated at 37° C. at 150 rpm. Thirty μL of each sample are removed and placed into a new tube before the rSIF is added and at […]. At each time point, the reaction was quenched by 1% TFA in 50% ACN at 1:1. The samples are diluted 100 times using dilution buffer (1:1 of 1% TFA in 50% ACN: 50 mM Tris pH8) and ready for analysis using mass spectrometry (MS).
(§1) The data analysis is performed using MassLynx.

Series [2] is described as follows: in vivo. The note with it: male, Sprague Dawley, rat, plasma, other: intrajejunal, 1 umol/kg.
Procedure: The pharmacokinetics of select Examples are evaluated following a single subcutaneous (SC) administration of 50 nMol/kg (dissolved in PBS, pH 7.4) or single 1 μmol/kg (mixed with 250 mM sodium decanoate (“C10”) and 12 mg/mL soybean trypsin inhibitor (SBTI)) intrajejunal (IJ) administration to male Sprague Dawley rats. […] Pharmacokinetic parameters are calculated using individual plasma concentrations. A qualified LC/MS method that measures the intact mass of the Example is used to determine plasma (K3 EDTA) concentrations. Each Example is tested with an analog peptide as an internal standard. Immunoaffinity based precipitation with anti-GIP/GLP1 antibodies is used to extract each test peptide and analog.
Series [3] is described as follows: Peptide stability in 50% v/v pig small intestinal fluid with and without protease inhibitor. It is filed as in vitro ADME. The conditions noted are these: for remaining at 0.25 h / remaining at 0.5 h / remaining at 1 h: read-out: % peptide intact. The procedure:
A peptide is incubated at 37° C. in 1% (v/v) rat small intestinal fluid or 50% (v/v) pig small intestinal fluid with and without a peptidase inhibitor. At different time points, samples are taken out, followed by quenching with 1% TFA in 50% ACN/water to stop the enzyme activity. The intact peptide at different time points is analyzed by high-performance liquid chromatography (HPLC) equipped with an ultraviolet (UV) detector or LC-MS/MS and normalized to the amount of peptide before mixing with the enzyme solution.

Series [4] is described as follows: Proteolytic stability assay in 90% pig small intestinal fluid (pSIF). It is filed as in vitro ADME. The conditions noted are these: 90% pSIF, 37° C. How it is done: Peptides are diluted to a concentration of 0.4 mg/mL in 90% pig small intestinal fluid. After the mixing, 20 μL are immediately removed (time 0 for the time point of pre-incubation). The mixture is then incubated at 37° C. at 150 rpm. […] The sample is centrifuged at 20,000×g for 20 min at 4° C.
as §1

Where [5] appears, read: pH 8, with rSBTI (5 mg/mL), protease inhibitor, rSBTI (5 mg/mL), 15 min.
[6] abbreviates: pH 8, with rSBTI (5 mg/mL), protease inhibitor, rSBTI (5 mg/mL), 30 min.
[7] abbreviates: pH 8, with rSBTI (5 mg/mL), protease inhibitor, rSBTI (5 mg/mL), 60 min.

The values below come from US12252524B2, “GIP/GLP1 co-agonist compounds” (Eli Lilly and Company, priority 2018, dated 2025).

Like-named read-outs stand apart in the source and are kept apart here. Numbered stars: 1 amine (or outer) side, 2 acyl side, 3 side chain; on linkers, the order of the positions; unused ones are H or OH. Square brackets hold non-standard residues; d marks the D form. Side chains are listed from the residue outwards. Peptide text beside a SMILES is read from it. * marks the point of attachment. C20 diacid = O=C(O)CCCCCCCCCCCCCCCCCCC(=O)*; C18 diacid = O=C(O)CCCCCCCCCCCCCCCCC(=O)*; αMePhe(2-F) = C[C@](N)(Cc1ccccc1F)C(=O)O; γGlu = O=C(O)[C@H](CCC(=O)[*:2])N[*:1]; αMeL = CC(C)C[C@](C)(N)C(=O)O; Orn = NCCC[C@H](N)C(=O)O; AEEA = NCCOCCOCC(=O)O; Aib = CC(C)(N)C(=O)O

The Tmax is the time at which the peak concentration occurs. Turning to `CC[C@H](C)[C@H](NC(=O)[C@H](CC(C)C)NC(=O)[C@H](Cc1ccc(O)cc1)NC(=O)[C@@H](CCC(=O)O)NC(=O)[C@@H](NC(=O)[C@H](Cc1ccccc1)NC(=O)[C@H](CCC(=O)O)NC(=O)C(C)(C)NC(=O)[C@H](CCC(N)=O)NC(=O)[C@H](C)NC(=O)[C@H](CCCCNC(=O)COCCOCCNC(=O)COCCOCCNC(=O)CC[C@H](NC(=O)CCCCCCCCCCCCCCCCCCC(=O)O)C(=O)O)NC(=O)[C@H](CCC(=O)O)NC(=O)[C@H](CC(=O)O)NC(=O)[C@H](CC(C)C)NC(=O)[C@](C)(CC(C)C)NC(=O)[C@@H](NC(=O)[C@H](CO)NC(=O)[C@H](Cc1ccc(O)cc1)NC(=O)[C@H](CC(=O)O)NC(=O)[C@H](CO)NC(=O)[C@@H](NC(=O)[C@](C)(Cc1ccccc1F)NC(=O)[C@@H](NC(=O)CNC(=O)[C@H](CCC(=O)O)NC(=O)C(C)(C)NC(=O)[C@@H](N)Cc1ccc(O)cc1)[C@@H](C)O)[C@@H](C)O)[C@@H](C)CC)[C@@H](C)CC)C(=O)N[C@@H](CCC(=O)O)C(=O)NCC(=O)NCC(=O)N1CCC[C@H]1C(=O)N[C@@H](CO)C(=O)N[C@@H](CO)C(=O)NCC(=O)N[C@@H](C)C(=O)N1CCC[C@H]1C(=O)N1CCC[C@H]1C(=O)N1CCC[C@H]1C(=O)N[C@@H](CO)C(N)=O` [Example 1] (H-Y[Aib]EGT[αMePhe(2-F)]TSDYSI[αMeL]LDEK([AEEA-AEEA-γGlu-C20 diacid])AQ[Aib]EFI[dE]YLIEGGPSSGAPPPS-NH2), in series [1], the “percentage of peptide not cleaved using rSIF” value amounted to 100%; the remaining at 0.05 h, 0.4 mg/mL worked out at 82.4%; the remaining at 0.25 h, 0.4 mg/mL stood at 41.4%; the remaining at 1 h, 0.4 mg/mL is 1.6%. Also, the time to peak (Tmax) in series [2] was found to be 79.8 min.
As to `CC[C@H](C)[C@H](NC(=O)[C@H](CC(C)C)NC(=O)[C@H](Cc1ccc(O)cc1)NC(=O)[C@@H](CCC(=O)O)NC(=O)[C@@H](NC(=O)[C@H](Cc1ccccc1)NC(=O)[C@H](CCC(=O)O)NC(=O)C(C)(C)NC(=O)[C@H](CCC(N)=O)NC(=O)[C@H](C)NC(=O)[C@H](CCCCNC(=O)COCCOCCNC(=O)COCCOCCNC(=O)CC[C@H](NC(=O)CCCCCCCCCCCCCCCCC(=O)O)C(=O)O)NC(=O)[C@H](CCCN)NC(=O)[C@H](CC(=O)O)NC(=O)[C@H](CC(C)C)NC(=O)[C@](C)(CC(C)C)NC(=O)[C@@H](NC(=O)[C@H](CO)NC(=O)[C@H](Cc1ccc(O)cc1)NC(=O)[C@H](CC(=O)O)NC(=O)[C@H](CO)NC(=O)[C@@H](NC(=O)[C@](C)(Cc1ccccc1F)NC(=O)[C@@H](NC(=O)CNC(=O)[C@H](CCC(=O)O)NC(=O)C(C)(C)NC(=O)[C@@H](N)Cc1ccc(O)cc1)[C@@H](C)O)[C@@H](C)O)[C@@H](C)CC)[C@@H](C)CC)C(=O)N[C@@H](CCC(=O)O)C(=O)NCC(=O)NCC(=O)N1CCC[C@H]1C(=O)N[C@@H](CO)C(=O)N[C@@H](CO)C(=O)NCC(=O)N[C@@H](C)C(=O)N1CCC[C@H]1C(=O)N1CCC[C@H]1C(=O)N1CCC[C@H]1C(=O)N[C@@H](CO)C(N)=O` [Example 2] (H-Y[Aib]EGT[αMePhe(2-F)]TSDYSI[αMeL]LD[Orn]K([AEEA-AEEA-γGlu-C18 diacid])AQ[Aib]EFI[dE]YLIEGGPSSGAPPPS-NH2; N-terminus assumed), the “percentage of peptide not cleaved using rSIF” value in series [1] amounted to 100%. The remaining at 0.05 h, 0.4 mg/mL in series [1] was 75.5%. The remaining at 0.25 h, 0.4 mg/mL in series [1] stood at 18.3%. In addition, the remaining at 1 h, 0.4 mg/mL in series [1] was 0.3%. In addition, the “% peptide intact” value in series [3] (no PI, control, 0 min) was determined as 100.00%; in series [3] (rSBTCI (0.5 mg/mL), 0 min), 100.00%; in series [3] (rSBTCI (0.5 mg/mL), 15 min) it was 131.71%; in series [3] (rSBTCI (0.5 mg/mL), 30 min) it was 126.53%; in series [3] (rSBTCI (0.5 mg/mL), 60 min) it was 123.70%; in series [3] (rSBTI (5 mg/mL), 0 min), 100.00%. For the same molecule, the remaining at 0.25 h worked out at 2.42% in series [3] (pH 8, no PI, control, 15 min) and 103% in series [3] (setting [5]). The remaining at 0.5 h stood at 1.9% in series [3] (pH 8, no PI, control, 30 min) and 113% in series [3] (setting [6]). The remaining at 1 h in series [3] (pH 8, no PI, control, 60 min) is 3.09%; in series [3] (setting [7]) it was 87.3%. For the same molecule, the Tmax in series [2] was determined as 15 min.
Take `CC[C@H](C)[C@H](NC(=O)[C@H](CC(C)C)NC(=O)[C@H](Cc1ccc(O)cc1)NC(=O)[C@@H](CCC(=O)O)NC(=O)[C@@H](NC(=O)[C@H](Cc1ccccc1)NC(=O)[C@H](CCC(=O)O)NC(=O)C(C)(C)NC(=O)[C@H](CCC(N)=O)NC(=O)[C@H](C)NC(=O)[C@H](CCCCNC(=O)COCCOCCNC(=O)COCCOCCNC(=O)CC[C@H](NC(=O)CCCCCCCCCCCCCCCCCCC(=O)O)C(=O)O)NC(=O)[C@H](CCCN)NC(=O)[C@H](CC(=O)O)NC(=O)[C@H](CC(C)C)NC(=O)[C@](C)(CC(C)C)NC(=O)[C@@H](NC(=O)[C@H](CO)NC(=O)[C@H](Cc1ccc(O)cc1)NC(=O)[C@H](CC(=O)O)NC(=O)[C@H](CO)NC(=O)[C@@H](NC(=O)[C@](C)(Cc1ccccc1F)NC(=O)[C@@H](NC(=O)CNC(=O)[C@H](CCC(=O)O)NC(=O)C(C)(C)NC(=O)[C@@H](N)Cc1ccc(O)cc1)[C@@H](C)O)[C@@H](C)O)[C@@H](C)CC)[C@@H](C)CC)C(=O)N[C@@H](CCC(=O)O)C(=O)NCC(=O)NCC(=O)N1CCC[C@H]1C(=O)N[C@@H](CO)C(=O)N[C@@H](CO)C(=O)NCC(=O)N[C@@H](C)C(=O)N1CCC[C@H]1C(=O)N1CCC[C@H]1C(=O)N1CCC[C@H]1C(=O)N[C@@H](CO)C(N)=O` [Example 3]: in series [1], the “percentage of peptide not cleaved using rSIF” value is 100%; the remaining at 0.05 h, 0.4 mg/mL came to 68.8%; the remaining at 0.25 h, 0.4 mg/mL turned out to be 25.8%; the remaining at 1 h, 0.4 mg/mL is 0.3%. In addition, the Tmax in series [2] worked out at 19.8 min.
On to `CC[C@H](C)[C@H](NC(=O)[C@H](CC(C)C)NC(=O)[C@](C)(Cc1ccc(O)cc1)NC(=O)[C@@H](CCC(=O)O)NC(=O)[C@@H](NC(=O)[C@H](Cc1ccccc1)NC(=O)[C@H](CCC(=O)O)NC(=O)C(C)(C)NC(=O)[C@H](CCC(N)=O)NC(=O)[C@H](C)NC(=O)[C@H](CCCCNC(=O)COCCOCCNC(=O)COCCOCCNC(=O)CC[C@H](NC(=O)CCCCCCCCCCCCCCCCC(=O)O)C(=O)O)NC(=O)[C@H](CCCN)NC(=O)[C@H](CC(=O)O)NC(=O)[C@H](CC(C)C)NC(=O)[C@](C)(CC(C)C)NC(=O)[C@@H](NC(=O)[C@H](CO)NC(=O)[C@H](Cc1ccncc1)NC(=O)[C@H](CC(=O)O)NC(=O)[C@H](CO)NC(=O)[C@@H](NC(=O)[C@](C)(Cc1ccccc1F)NC(=O)[C@@H](NC(=O)CNC(=O)[C@H](CCC(=O)O)NC(=O)C(C)(C)NC(=O)[C@@H](N)Cc1ccc(O)cc1)[C@@H](C)O)[C@@H](C)O)[C@@H](C)CC)[C@@H](C)CC)C(=O)N[C@@H](CCC(=O)O)C(=O)NCC(=O)NCC(=O)N1CCC[C@H]1C(=O)N[C@@H](CO)C(=O)N[C@@H](CO)C(=O)NCC(=O)N[C@@H](C)C(=O)N1CCC[C@H]1C(=O)N1CCC[C@H]1C(=O)N1CCC[C@H]1C(=O)N[C@@H](CO)C(N)=O` [Example 4], for which the “percentage of peptide not cleaved using rSIF” value in series [1] is 100%. Moreover, in series [1], the remaining at 0.05 h, 0.4 mg/mL amounted to 97.9%. Besides, in series [1], the remaining at 0.25 h, 0.4 mg/mL worked out at 99.3%. Moreover, the remaining at 1 h, 0.4 mg/mL in series [1] is 89.4%; in series [4] (pig, 90% pig small intestinal fluid (pSIF), 60 min, read-out: percentage of peptide not cleaved using pSIF), 60%. The “percentage of peptide not cleaved using pSIF” value in series [4] (0 min) stood at 100%. In series [4] (pig, 90% pig small intestinal fluid (pSIF), 30 min, read-out: percentage of peptide not cleaved using pSIF), the remaining at 0.5 h, 0.4 mg/mL was 73.4%. Moreover, the remaining at 0.75 h, 0.4 mg/mL in series [4] (pig, 90% pig small intestinal fluid (pSIF), 45 min, read-out: percentage of peptide not cleaved using pSIF) is 56.4%. The “% peptide intact” value worked out at 100.00% in series [3] (no PI, control, 0 min) and 100.00% in series [3] (rSBTI (5 mg/mL), 0 min). Further, the remaining at 0.25 h amounted to 72.5% in series [3] (pH 8, no PI, control, 15 min) and 97% in series [3] (setting [5]). Moreover, the remaining at 0.5 h in series [3] (pH 8, no PI, control, 30 min) came out at 41.4%; in series [3] (setting [6]), 96.3%. Further, the remaining at 1 h was determined as 19% in series [3] (pH 8, no PI, control, 60 min) and 88.6% in series [3] (setting [7]).
